The values that follow come from the supplement of paper PMC10307832.

Common to all, as to experiment: relative viability (nuclei count vs DMSO), 5 days (fraction); higher = more cells survive
Compound in experiment [1]: C1CNCCC1C2=CC(=NN2)C3=CC=NC=C3 + COc1cc2c(Oc3ccc(NC(=O)C4(C(=O)Nc5ccc(F)cc5)CC4)cc3F)ccnc2cc1OCCCN1CCOCC1 [Foretinib] (partner 0.25 µM)
In outline: (§1)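 One day after seeding in 1536-well plates, lung cancer cell lines were dosed by pin tool. Dosing was either single-drug or a fixed anchor-drug dose plus five library-drug doses (not always all listed) in √10 steps. After 5 days, nuclei were stained in one fix-and-stain step and counted on 4× images, and relative viability is the nuclei count of treated wells over that of vehicle wells, given as the median of duplicate plates.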

Compound in experiment [2]: C1CNCCC1C2=CC(=NN2)C3=CC=NC=C3 + C[C@@H](Oc1cc(-c2cnn(C3CCNCC3)c2)cnc1N)c1c(Cl)ccc(F)c1Cl [Crizotinib] (partner 1 µM)
A digest of the protocol: as §1

Compound in experiment [3]: C[C@@H](N)c1ccc(C(=O)Nc2ccnc3[nH]ccc23)cc1 + O=C(c1cc(Cc2n[nH]c(=O)c3ccccc23)ccc1F)N1CCN(C(=O)C2CC2)CC1 [Olaparib] (partner 8 µM)
A digest of the protocol:
as §1

Compound in the experiment “Tanzisertib + OSI-027”: O[C@H]1CC[C@H](Nc2ncc3nc(Nc4c(F)cc(F)cc4F)n([C@H]4CCOC4)c3n2)CC1 [Tanzisertib] + COc1cccc2cc(-c3nc([C@H]4CC[C@H](C(=O)O)CC4)n4ncnc(N)c34)[nH]c12 [OSI-027] (partner 0.5 µM)
A digest of the protocol: as §1

For UMC-11, the relative viability came out at 1 in experiment [1] (first compound 0.08 µM); 1.17 in experiment [1] (first compound 0.8 µM); 1.09 in experiment [1] (first compound 2.53 µM); 1.09 in experiment [1] (first compound 8 µM); 0.69 in experiment [2] (first compound 0.08 µM); 0.577 in experiment [2] (first compound 0.8 µM). Further, the relative viability in experiment [2] (first compound 2.53 µM) amounted to 0.713; in experiment [2] (first compound 8 µM) it was 0.63; in experiment [3] (first compound 0.04 µM), 0.359; in experiment [3] (first compound 0.1265 µM) it was 0.427; in experiment [3] (first compound 0.4 µM), 0.357; in experiment [3] (first compound 1.265 µM), 0.303. For the same cell line, the relative viability was 0.285 in experiment [3] (first compound 4 µM); 0.532 in the experiment with Tanzisertib + OSI-027 (first compound 0.08 µM); 0.391 with Tanzisertib + OSI-027 (first compound 0.253 µM); 0.537 with Tanzisertib + OSI-027 (first compound 0.8 µM); 0.439 in the experiment with Tanzisertib + OSI-027 (first compound 2.53 µM); 0.477 with Tanzisertib + OSI-027 (first compound 8 µM).
